Measurements reported in patent US20220125747A1, “APPLICATION OF ACTIVE INGREDIENT WGX50 IN ZANTHOXYLUM BUNGEANUM EXTRACT” (Shanghai Jiao Tong University, priority 2020, published 2022).

How the values were obtained:
Format in all cases: cell-based
[1] = system: IL-1α; test: anti-inflammatory test of keratinocytes stimulated by UVB, IL-1α ELISA; settings: for IL-1α Decreased ratio (compared to NC) / IL-1α Average concentration: 24 h; for IL-1α Average concentration: ELISA of culture supernatant
Text: (§1) 3. Anti-inflammatory test based on UVB (ultraviolet radiation b) stimulation of keratinocytes. The blank control (oil-soluble), solvent control (oil-soluble), positive control and sample groups are grouped in the experiment. The detection indexes are TNFα (a pro-inflammatory factors, the NF-κB signaling pathway mediates and initiates the transcription of TNFα (abbreviation for tumor necrosis factor alpha), and after TNFα is synthesized, it binds to its receptor and in turn activates the NF-κB signaling pathway) and IL1-α (a pro-inflammatory factor being non-hydrophobic polypeptide, which is secreted out of cells after cell membrane damage, and then the pro-inflammatory factor binds to its corresponding receptor IL1R and activates NF-κB to induce inflammatory cascade reaction), the detection and analysis are performed according to the operating manual of the TNFα and IL1-α kits.
(§2) TNFα and IL1-α expression detection process: after 24 hours of incubation, the cell culture supernatant is collected, and the detection and analysis are performed according to the operating instructions of the TNFα and IL1-α kit. When using the T-Test method for statistical analysis, the NC group is compared with the BC group, and the significance is indicated by #, P-value<0.05 is indicated as #, P-value<0.01 is indicated as ##; sample group and positive control group are compared with NC group, and significance is represented by *, P-value<0.05 is represented by *, P-value<0.01 is represented by * *.

[2] = system: TNFα; test: anti-inflammatory test of keratinocytes stimulated by UVB, TNFα ELISA; settings: for TNFα Decreased ratio (compared to NC) / TNFα Average concentration: 24 h; for TNFα Average concentration: ELISA of culture supernatant
Text: as §1
Embodiment 5, anti-inflammatory test of keratinocytes stimulated by UVB.
as §2

[3] = system: keratinocytes; test: cytotoxicity test based on keratinocytes (MTT); settings: for Cell vitality Mean: keratinocytes, 24 hours, MTT
Procedure: Embodiment 1, cytotoxicity test based on keratinocytes. Set up 8 concentration gradients, and set up 3 repeating holes under each concentration. At the same time, solvent control hole, zero adjustment hole (KC2500) and positive control hole (PC, 4% Dimethyl sulfoxide, DMSO) are set up in the experiment. After incubation for 24 hours, the cell viability is detected by MTT method, and the maximum safe concentration of cell administration is screened. The MTT test results are shown in Table 1, in which the GraphPad Prism Program software is used for mapping, and T-test statistical analysis is used among all groups. P-value<0.05 indicates significant difference, and P-value<0.01 indicates extremely significant difference. According to the results of MTT assay, the concentration near the inflection point of cell vitality is selected, and after incubation and culture for 24 hours, the cell morphology is observed under the inverted microscope and photographed (20×), and the morphological detection results are shown in FIG. 2.

[4] = system: melanocytes; test: cytotoxicity test based on melanocytes (MTT); settings: for Cell vitality Mean: melanocytes, 24 hours
Procedure: Embodiment 2, cytotoxicity test based on melanocytes. Set up 8 concentration gradients, and set up 3 repeating holes under each concentration. At the same time, solvent control well, Medium-254 well and positive control well (PC, 8% DMSO) are set up in the experiment. After incubation for 24 hours, the cell viability is detected by MTT method, and the maximum safe concentration of cell administration is screened.

[5] = system: Claudin-1; test: moisturizing gene test based on keratinocytes (qRT-PCR), Claudin-1; settings: 5 μM, 24 h
Procedure: (§3) 1. Moisturizing gene test based on keratinocytes. First, the cytotoxicity of keratinocytes is tested, and then the experimental design is carried out, and a blank control group and a sample group are set up. The detection indexes are AQP3 (aquaporin), CD44 (cell-surface glycoproteins), Filaggrin (protein), claudin-1 (tight junction protein) and HAS2 (hyaluronic acid synthetase). RNA extraction, reverse transcription and fluorescence quantitative PCR are carried out, and the results are calculated by 2^−ΔΔCT method.
(§4) Embodiment 3, moisturizing gene test based on keratinocytes.
(§5) Gene detection process: after incubation for 24 hours, the cells are sampled, and RNA extraction, reverse transcription and fluorescence quantitative PCR detection are carried out according to the kit instruction, and the results are calculated by 2^−ΔΔΔCT method. When statistical analysis is carried out by T-Test method, significance is represented by *, P-value<0.05 is represented by *, and P-value<0.01 is represented by * *.

[6] = system: AQP3 gene; test: moisturizing gene test based on keratinocytes (qRT-PCR), AQP3; settings: 5 μM, 24 h
Procedure: as §3, §4
AQP3 aquaporin in the detection index, located on the cell membrane, has the function of transporting water and plays an important role in the process of skin moisturizing.
as §5

[7] = system: Filaggrin; test: moisturizing gene test based on keratinocytes (qRT-PCR), Filaggrin; settings: 5 μM, 24 h
Procedure: as §3, §4, §5

[8] = system: TRP-1; test: whitening gene test based on melanocytes (qRT-PCR), TRP-1; settings: 100 μM, 24 h
Procedure: (§6) 2. Whitening gene test based on melanocytes. First, the cytotoxicity of melanocytes is tested, and then the experimental design is carried out, and a blank control group and a sample group are set up. The detection indexes are MC1R (melanocortin receptor), MITF (melanogenesis transcription factor), TYR (melanin synthesis and transport related gene) and TYP-1 (tyrosinase related protein). RNA extraction, reverse transcription and fluorescence quantitative PCR are carried out, and the results are calculated by 2^−ΔΔCT method.
(§7) Embodiment 4, whitening gene test based on melanocytes.
(§8) Gene detection process: after 24 hours of incubation, the cells are sampled, and RNA extraction, reverse transcription and fluorescence quantitative PCR detection are carried out according to the kit instructions, and the results are calculated by 2^−ΔΔΔCT method. When statistical analysis is carried out by T-Test method, significance is represented by *, P-value<0.05 is represented by *, and P-value<0.01 is represented by * *.

[9] = system: HAS2; test: moisturizing gene test based on keratinocytes (qRT-PCR), HAS2; settings: 5 μM, 24 h
Procedure: as §3, §4, §5

[10] = system: CD44; test: moisturizing gene test based on keratinocytes (qRT-PCR), CD44; settings: 5 μM, 24 h
Procedure: as §3, §4, §5

[11] = system: MITF; test: whitening gene test based on melanocytes (qRT-PCR), MITF; settings: 100 μM, 24 h
Procedure: as §6, §7, §8

[12] = system: TYR; test: whitening gene test based on melanocytes (qRT-PCR), TYR; settings: 100 μM, 24 h
Procedure: as §6, §7, §8

[13] = system: MC1R; test: whitening gene test based on melanocytes (qRT-PCR), MC1R; settings: 100 μM, 24 h
Procedure: as §6, §7, §8

[14] = 5 μM, compared with the positive control group (so in the source), P-value<0.01

For `C[C@@H]1C[C@H]2[C@@H]3CCC4=CC(=O)C=C[C@]4(C)[C@@]3(F)[C@@H](O)C[C@]2(C)[C@@]1(O)C(=O)CO` [PC, Dexamethasone, reference compound], the “IL-1α Decreased ratio (compared to NC)” value ([1]; 100 μg/mL) was 29%, the “IL-1α Average concentration” value ([1]; 100 μg/mL) was 93.97 pg/mL and the “secretion of IL-1α compared with the solvent control group” value ([1]; 100 μg/mL, P-Value<0.05) was “decreases significantly”. The “TNFα Decreased ratio (compared to NC)” value ([2]; 100 μg/mL) was 94%, the “TNFα Average concentration” value ([2]; 100 μg/mL) was 8.34 pg/mL and the “secretion of TNFα compared with the solvent control group” value ([2]; 100 μg/mL, P-value<0.01) was “decreases significantly”.
For `C[S+](C)[O-]` [DMSO, Dimethyl sulfoxide, reference compound], the “Cell vitality Mean” value ([3]; positive control 4% DMSO) was 30.27% and the “Cell vitality Mean” value ([4]; positive control 8% DMSO) was 24.23%.
`COc1ccc(CCNC(=O)/C=C/c2ccccc2)cc1OC` [WGX50, (E)-N[2-(3,4-dimethoxyphenyl)ethyl]-3-phenylacrylamide] was tested, and the “Claudin-1 Increased ratio (compared to BC)” value [5] was 17.50%, the “Claudin-1 gene expression Mean (2^−ΔΔCT)” value [5] was 1.182 and the “expression of AQP3 gene in keratinocytes compared with the blank control group” value ([6]; P-value<0.01) was “significantly promotes”. The “AQP3 Increased ratio (compared to BC)” value ([6]; qRT-PCR) was 34.20%, the “AQP3 gene expression Mean (2^−ΔΔCT)” value ([6]; qRT-PCR) was 1.345 and the cytotoxicity to keratinocytes ([3]; in the concentration range of 5 μM, MTT and morphological results) was “no cytotoxicity”. For the same compound, the “Cell vitality Mean” value ([3]; 0.5 μM) was 106.81%, the “Cell vitality Mean” value ([3]; 1 μM) was 93.72% and the “Cell vitality Mean” value ([3]; 2.5 μM) was 93.60%. The “Cell vitality Mean” value ([3]; 5 μM) was 93.01%, the “Cell vitality Mean” value ([3]; 10 μM) was 84.00% and the “Cell vitality Mean” value ([3]; 25 μM) was 66.77%. For the same compound, the “Cell vitality Mean” value ([3]; 50 μM) was 57.35%, the “Cell vitality Mean” value ([3]; 100 μM) was 50.36% and the cytotoxicity to melanocytes ([4]; in the concentration range of 100 μM) was “no cytotoxicity”. For the same compound, the “Cell vitality Mean” value ([4]; 0.5 μM) was 105.78%, the “Cell vitality Mean” value ([4]; 1 μM) was 99.02% and the “Cell vitality Mean” value ([4]; 2.5 μM) was 96.68%. For the same compound, the “Cell vitality Mean” value ([4]; 5 μM) was 95.56%, the “Cell vitality Mean” value ([4]; 10 μM) was 99.51% and the “Cell vitality Mean” value ([4]; 25 μM) was 99.51%. The “Cell vitality Mean” value ([4]; 50 μM) was 108.86%, the “Cell vitality Mean” value ([4]; 100 μM) was 96.62% and the “IL-1α Decreased ratio (compared to NC)” value ([1]; 5 μM) was 67%. The “IL-1α Average concentration” value ([1]; 5 μM) was 43.65 pg/mL, the “secretion of IL-1α” value [1, 14] was “decreases significantly” and the “Filaggrin Increased ratio (compared to BC)” value [7] was 7.20%. The “Filaggrin gene expression Mean (2^−ΔΔCT)” value [7] was 1.101, the “expression of TYP-1 gene in melanocytes compared with the blank control group” value ([8]; P-value<0.01) was “significantly inhibits” and the “TRP-1 Increased ratio (compared to BC)” value ([8]; qRT-PCR) was 70.10%. For the same compound, the “TRP-1 gene expression Mean (2^−ΔΔCT)” value ([8]; qRT-PCR) was 0.304, the “HAS2 Increased ratio (compared to BC)” value [9] was −14.70% and the “HAS2 gene expression Mean (2^−ΔΔCT)” value [9] was 0.898. For the same compound, the “CD44 Increased ratio (compared to BC)” value [10] was −21.90%, the “CD44 gene expression Mean (2^−ΔΔCT)” value [10] was 0.785 and the “expression of MITF gene in melanocytes compared with the blank control group” value ([11]; P-value<0.01) was “significantly inhibits”. For the same compound, the “MITF Increased ratio (compared to BC)” value ([11]; qRT-PCR) was 57.8%, the “MITF gene expression Mean (2^−ΔΔCT)” value ([11]; qRT-PCR) was 0.432 and the “TNFα Decreased ratio (compared to NC)” value ([2]; 5 μM) was 85%. The “TNFα Average concentration” value ([2]; 5 μM) was 18.97 pg/mL, the “secretion of TNFα” value [2, 14] was “decreases significantly” and the “expression of TYR gene in melanocytes compared with the blank control group” value ([12]; P-value<0.01) was “significantly inhibits”. The “TYR Increased ratio (compared to BC)” value ([12]; qRT-PCR) was 51.8%, the “TYR gene expression Mean (2^−ΔΔCT)” value ([12]; qRT-PCR) was 0.488 and the “expression of MC1R gene in melanocytes compared with the blank control group” value ([13]; P-value<0.01) was “significantly inhibits”. The “MC1R Increased ratio (compared to BC)” value ([13]; qRT-PCR) was 47.2% and the “MC1R gene expression Mean (2^−ΔΔCT)” value ([13]; qRT-PCR) was 0.528.
